Reference: ChEMBL document CHEMBL4330132, “5-Keto-3-cyano-2,4-diaminothiophenes as selective maternal embryonic leucine zipper kinase inhibitors” (Bioorg Med Chem Lett, 2019)

Columns and labels:
[1] = system: Tyrosine-protein kinase ABL1 (Homo sapiens), P00519 [Q252H]; assay: Binding affinity to human phosphorylated ABL1 Q252H mutant expressed in mammalian expression system assessed as residual binding level at 1 uM by Kinomescan method relative to control
[2] = biological target: Mitogen-activated protein kinase kinase kinase 5 (Homo sapiens) (UniProt Q99683); assay: Binding affinity to wild-type human partial length ASK1 (E648 to S964 residues) expressed in bacterial expression system assessed as residual binding level at 1 uM by Kinomescan method relative to control
[3] = biological target: Mitogen-activated protein kinase kinase kinase 6 (Homo sapiens) (UniProt O95382); assay: Binding affinity to wild-type human partial length ASK2 (M278 to R972 residues) expressed in mammalian expression system assessed as residual binding level at 1 uM by Kinomescan method relative to control
[4] = biological target: Tyrosine-protein kinase Blk (Homo sapiens) (UniProt P51451); assay: Binding affinity to wild-type human partial length BLK (G211 to L503 residues) expressed in bacterial expression system assessed as residual binding level at 1 uM by Kinomescan method relative to control
Chain of Tyrosine-protein kinase Blk (Homo sapiens) (P51451 2-505 limits assumed): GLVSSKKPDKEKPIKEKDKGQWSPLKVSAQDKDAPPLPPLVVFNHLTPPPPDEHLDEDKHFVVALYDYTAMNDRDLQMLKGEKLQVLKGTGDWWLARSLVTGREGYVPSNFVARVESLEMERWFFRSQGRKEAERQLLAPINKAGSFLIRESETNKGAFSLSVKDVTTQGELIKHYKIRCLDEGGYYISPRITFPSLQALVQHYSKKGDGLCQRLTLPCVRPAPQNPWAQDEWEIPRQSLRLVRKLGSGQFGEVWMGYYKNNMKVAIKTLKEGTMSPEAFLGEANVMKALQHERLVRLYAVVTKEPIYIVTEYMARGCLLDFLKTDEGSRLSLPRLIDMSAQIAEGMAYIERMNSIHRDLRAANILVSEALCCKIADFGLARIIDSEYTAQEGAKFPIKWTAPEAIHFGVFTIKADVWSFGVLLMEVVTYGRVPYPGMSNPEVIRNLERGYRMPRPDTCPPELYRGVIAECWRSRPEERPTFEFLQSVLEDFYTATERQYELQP

[5] = biological target: Serine/threonine-protein kinase BRSK1 (Homo sapiens) (UniProt Q8TDC3); assay: Binding affinity to wild-type human partial length BRSK1 (M1 to E754 residues) expressed in bacterial expression system assessed as residual binding level at 1 uM by Kinomescan method relative to control
[6] = biological target: Discoidin domain-containing receptor 2 (Homo sapiens) (UniProt Q16832); assay: Binding affinity to wild-type human partial length DDR2 (V555 to E855 residues) expressed in mammalian expression system assessed as residual binding level at 1 uM by Kinomescan method relative to control
[7] = system: Epidermal growth factor receptor (Homo sapiens), P00533 [L858R]; assay: Binding affinity to human partial length EGFR L858R mutant (R669 to V1011 residues) expressed in bacterial expression system assessed as residual binding level at 1 uM by Kinomescan method relative to control
[8] = biological target: Ephrin type-B receptor 4 (Homo sapiens) (UniProt P54760); assay: Binding affinity to wild-type human partial length EPHB4 (H585 to G892 residues) expressed in bacterial expression system assessed as residual binding level at 1 uM by Kinomescan method relative to control
[9] = biological target: Mitogen-activated protein kinase 1 (Homo sapiens) (UniProt P28482); assay: Binding affinity to wild-type human full length ERK2 (M1 to S360 residues) expressed in bacterial expression system assessed as residual binding level at 1 uM by Kinomescan method relative to control
[10] = biological target: Insulin-like growth factor 1 receptor (Homo sapiens) (UniProt P08069); assay: Binding affinity to wild-type human partial length IGF1R (L972 to D1294 residues) expressed in bacterial expression system assessed as residual binding level at 1 uM by Kinomescan method relative to control
Chain of Insulin-like growth factor 1 receptor (Homo sapiens) (P08069 31-736 limits assumed): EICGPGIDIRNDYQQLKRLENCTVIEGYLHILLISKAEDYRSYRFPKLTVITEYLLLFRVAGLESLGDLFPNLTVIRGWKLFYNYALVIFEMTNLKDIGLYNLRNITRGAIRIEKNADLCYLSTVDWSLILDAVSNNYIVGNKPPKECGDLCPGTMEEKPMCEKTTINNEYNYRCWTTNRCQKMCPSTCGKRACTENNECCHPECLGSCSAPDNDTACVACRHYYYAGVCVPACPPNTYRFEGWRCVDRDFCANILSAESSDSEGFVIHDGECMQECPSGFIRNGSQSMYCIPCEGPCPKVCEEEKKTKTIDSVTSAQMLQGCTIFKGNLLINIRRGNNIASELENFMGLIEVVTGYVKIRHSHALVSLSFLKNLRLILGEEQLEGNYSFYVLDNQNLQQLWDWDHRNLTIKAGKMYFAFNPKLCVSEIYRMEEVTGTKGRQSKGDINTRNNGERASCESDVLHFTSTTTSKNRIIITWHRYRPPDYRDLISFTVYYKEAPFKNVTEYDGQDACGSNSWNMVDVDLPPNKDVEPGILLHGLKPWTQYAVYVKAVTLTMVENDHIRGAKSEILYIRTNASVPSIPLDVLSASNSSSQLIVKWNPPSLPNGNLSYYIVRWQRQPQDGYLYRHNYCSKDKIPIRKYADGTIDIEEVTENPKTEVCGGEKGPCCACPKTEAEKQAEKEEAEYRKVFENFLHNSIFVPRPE
Chain of Insulin-like growth factor 1 receptor (Homo sapiens) (P08069 741-1367 limits assumed): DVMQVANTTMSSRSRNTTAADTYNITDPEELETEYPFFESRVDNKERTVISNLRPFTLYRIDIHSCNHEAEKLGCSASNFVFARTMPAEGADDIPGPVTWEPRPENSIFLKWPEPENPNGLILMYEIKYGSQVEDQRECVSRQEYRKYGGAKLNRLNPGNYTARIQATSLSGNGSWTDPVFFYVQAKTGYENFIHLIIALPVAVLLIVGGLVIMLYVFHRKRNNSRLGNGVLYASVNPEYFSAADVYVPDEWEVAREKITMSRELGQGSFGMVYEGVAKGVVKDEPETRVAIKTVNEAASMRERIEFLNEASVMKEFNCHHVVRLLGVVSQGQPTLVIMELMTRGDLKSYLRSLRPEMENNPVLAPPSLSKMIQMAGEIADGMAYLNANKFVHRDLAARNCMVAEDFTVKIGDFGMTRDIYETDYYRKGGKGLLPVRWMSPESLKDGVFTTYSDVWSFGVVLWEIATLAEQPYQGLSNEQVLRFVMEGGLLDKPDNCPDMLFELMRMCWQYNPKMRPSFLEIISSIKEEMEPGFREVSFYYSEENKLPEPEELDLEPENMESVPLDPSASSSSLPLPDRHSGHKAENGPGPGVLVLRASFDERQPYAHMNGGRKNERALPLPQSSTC

[11] = biological target: Insulin receptor (Homo sapiens) (UniProt P06213); assay: Binding affinity to wild-type human partial length INSR (P997 to E1318 residues) expressed in mammalian expression system assessed as residual binding level at 1 uM by Kinomescan method relative to control
[12] = biological target: Tyrosine-protein kinase JAK2 (Homo sapiens) (UniProt O60674); assay: Binding affinity to wild-type human partial length JAK2 JH1 catalytic domain (A829 to G1132 residues) expressed in mammalian expression system assessed as residual binding level at 1 uM by Kinomescan method relative to control
[13] = biological target: Mitogen-activated protein kinase 8 (Homo sapiens) (UniProt P45983); assay: Binding affinity to wild-type human full length JNK1 (M1 to Q384 residues) expressed in mammalian expression system assessed as residual binding level at 1 uM by Kinomescan method relative to control
Chain of Mitogen-activated protein kinase 8 (Homo sapiens) (P45983 whole entry, the tested form may be a part): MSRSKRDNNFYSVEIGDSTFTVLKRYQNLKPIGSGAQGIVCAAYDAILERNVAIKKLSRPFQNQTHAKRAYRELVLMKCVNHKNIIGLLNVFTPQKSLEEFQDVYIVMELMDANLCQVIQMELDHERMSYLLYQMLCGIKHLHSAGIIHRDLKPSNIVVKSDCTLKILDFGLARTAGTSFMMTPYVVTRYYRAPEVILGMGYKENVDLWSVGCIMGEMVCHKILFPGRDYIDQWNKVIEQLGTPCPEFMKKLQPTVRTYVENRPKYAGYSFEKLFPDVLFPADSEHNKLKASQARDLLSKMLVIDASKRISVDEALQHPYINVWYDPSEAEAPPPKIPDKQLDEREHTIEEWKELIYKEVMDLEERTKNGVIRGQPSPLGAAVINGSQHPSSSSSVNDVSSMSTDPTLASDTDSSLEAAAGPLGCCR

[14] = biological target: Mitogen-activated protein kinase kinase kinase 15 (Homo sapiens) (UniProt Q6ZN16); assay: Binding affinity to wild-type human partial length MAP3K15 (T625 to L932 residues) expressed in mammalian expression system assessed as residual binding level at 1 uM by Kinomescan method relative to control
[15] = biological target: Dual specificity mitogen-activated protein kinase kinase 6 (Homo sapiens) (UniProt P52564); assay: Binding affinity to wild-type human partial length MEK6 (K36 to D334 residues) expressed in bacterial expression system assessed as residual binding level at 1 uM by Kinomescan method relative to control
[16] = biological target: Serine/threonine-protein kinase NLK (Homo sapiens) (UniProt Q9UBE8); assay: Binding affinity to wild-type human full length NLK (M13 to E527 residues) expressed in bacterial expression system assessed as residual binding level at 1 uM by Kinomescan method relative to control
[17] = biological target: Mitogen-activated protein kinase 13 (Homo sapiens) (UniProt O15264); assay: Binding affinity to wild-type human full length p38-delta (M1 to L365 residues) expressed in bacterial expression system assessed as residual binding level at 1 uM by Kinomescan method relative to control
Chain of Mitogen-activated protein kinase 13 (Homo sapiens) (O15264 whole entry, the tested form may be a part): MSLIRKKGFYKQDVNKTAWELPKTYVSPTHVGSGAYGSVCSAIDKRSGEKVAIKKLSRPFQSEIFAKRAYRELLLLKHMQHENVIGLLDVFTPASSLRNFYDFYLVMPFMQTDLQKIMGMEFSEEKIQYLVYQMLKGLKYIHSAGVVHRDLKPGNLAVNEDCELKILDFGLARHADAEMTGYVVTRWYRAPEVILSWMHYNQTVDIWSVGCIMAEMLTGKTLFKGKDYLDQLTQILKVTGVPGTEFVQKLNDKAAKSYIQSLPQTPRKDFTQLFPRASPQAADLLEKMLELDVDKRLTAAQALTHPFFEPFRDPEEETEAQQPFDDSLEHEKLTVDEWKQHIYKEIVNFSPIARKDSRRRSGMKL

[18] = biological target: Serine/threonine-protein kinase PAK 5 (Homo sapiens) (UniProt Q9P286); assay: Binding affinity to wild-type human partial length PAK7 (Y400 to H719 residues) expressed in bacterial expression system assessed as residual binding level at 1 uM by Kinomescan method relative to control
[19] = biological target: Platelet-derived growth factor receptor beta (Homo sapiens) (UniProt P09619); assay: Binding affinity to wild-type human partial length PDGFRB (V582 to Y1009 residues) expressed in bacterial expression system assessed as residual binding level at 1 uM by Kinomescan method relative to control
[20] = system: Phosphatidylinositol 4,5-bisphosphate 3-kinase catalytic subunit alpha isoform (Homo sapiens), P42336 [E545A]; assay: Binding affinity to human partial length PIK3CA E545A mutant (R108 to N1068 residues) expressed in mammalian expression system assessed as residual binding level at 1 uM by Kinomescan method relative to control
[21] = biological target: Protein kinase C epsilon type (Homo sapiens) (UniProt Q02156); assay: Binding affinity to wild-type human partial length PRKCE (A378 to P737 residues) expressed in mammalian expression system assessed as residual binding level at 1 uM by Kinomescan method relative to control
Chain of Protein kinase C epsilon type (Homo sapiens) (Q02156 whole entry, the tested form may be a part): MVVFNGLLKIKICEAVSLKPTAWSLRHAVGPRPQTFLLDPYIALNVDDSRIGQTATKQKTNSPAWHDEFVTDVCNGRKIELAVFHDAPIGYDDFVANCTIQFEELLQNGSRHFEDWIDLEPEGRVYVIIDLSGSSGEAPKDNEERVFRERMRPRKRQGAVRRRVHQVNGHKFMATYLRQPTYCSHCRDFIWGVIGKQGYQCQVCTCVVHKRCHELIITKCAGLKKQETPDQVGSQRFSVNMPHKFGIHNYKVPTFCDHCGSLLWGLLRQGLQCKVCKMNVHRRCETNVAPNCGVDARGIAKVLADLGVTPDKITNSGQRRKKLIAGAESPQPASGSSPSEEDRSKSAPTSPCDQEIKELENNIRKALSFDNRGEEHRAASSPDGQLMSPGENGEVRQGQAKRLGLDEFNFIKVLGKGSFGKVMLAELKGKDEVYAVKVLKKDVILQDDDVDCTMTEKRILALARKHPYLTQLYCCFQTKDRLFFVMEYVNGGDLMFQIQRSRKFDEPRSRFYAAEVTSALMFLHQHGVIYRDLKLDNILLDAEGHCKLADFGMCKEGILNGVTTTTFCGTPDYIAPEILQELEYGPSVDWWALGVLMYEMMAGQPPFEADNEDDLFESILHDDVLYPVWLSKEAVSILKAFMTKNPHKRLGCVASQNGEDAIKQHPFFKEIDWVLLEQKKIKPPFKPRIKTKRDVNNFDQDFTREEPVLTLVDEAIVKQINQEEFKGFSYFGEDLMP

[22] = biological target: Serine/threonine-protein kinase RIO2 (Homo sapiens) (UniProt Q9BVS4); assay: Binding affinity to wild-type human partial length RIOK2 (M1 to D313 residues) expressed in mammalian expression system assessed as residual binding level at 1 uM by Kinomescan method relative to control
[23] = biological target: Ribosomal protein S6 kinase alpha-4 (Homo sapiens) (UniProt O75676); assay: Binding affinity to wild-type human partial length N-terminal RPS6KA4 kinase domain 1 expressed in bacterial expression system assessed as residual binding level at 1 uM by Kinomescan method relative to control
Chain of Ribosomal protein S6 kinase alpha-4 (Homo sapiens) (O75676 whole entry, looked up, the tested form may be a part): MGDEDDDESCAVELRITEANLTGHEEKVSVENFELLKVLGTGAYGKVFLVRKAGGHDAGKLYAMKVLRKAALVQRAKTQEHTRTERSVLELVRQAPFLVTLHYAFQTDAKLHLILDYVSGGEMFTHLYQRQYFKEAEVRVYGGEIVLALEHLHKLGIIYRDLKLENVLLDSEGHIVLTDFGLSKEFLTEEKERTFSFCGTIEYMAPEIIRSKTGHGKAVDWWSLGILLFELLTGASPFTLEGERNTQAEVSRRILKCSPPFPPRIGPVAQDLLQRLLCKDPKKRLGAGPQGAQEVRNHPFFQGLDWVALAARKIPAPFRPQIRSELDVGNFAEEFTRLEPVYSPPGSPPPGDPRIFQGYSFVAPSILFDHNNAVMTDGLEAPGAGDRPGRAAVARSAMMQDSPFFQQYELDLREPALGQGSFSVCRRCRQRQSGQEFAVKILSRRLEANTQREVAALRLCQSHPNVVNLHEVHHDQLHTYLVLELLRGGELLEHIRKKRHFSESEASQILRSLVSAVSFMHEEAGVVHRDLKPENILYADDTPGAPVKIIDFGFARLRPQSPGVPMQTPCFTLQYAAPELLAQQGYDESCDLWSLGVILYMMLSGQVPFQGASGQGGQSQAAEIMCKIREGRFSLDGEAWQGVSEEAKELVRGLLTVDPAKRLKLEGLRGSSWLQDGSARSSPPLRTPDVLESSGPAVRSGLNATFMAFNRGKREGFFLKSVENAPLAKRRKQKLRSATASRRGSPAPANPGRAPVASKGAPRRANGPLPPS

[24] = biological target: Serine/threonine-protein kinase TBK1 (Homo sapiens) (UniProt Q9UHD2); assay: Binding affinity to wild-type human full length TBK1 (M1 to L729 residues) expressed in mammalian expression system assessed as residual binding level at 1 uM by Kinomescan method relative to control
Chain of Serine/threonine-protein kinase TBK1 (Homo sapiens) (Q9UHD2 whole entry, the tested form may be a part): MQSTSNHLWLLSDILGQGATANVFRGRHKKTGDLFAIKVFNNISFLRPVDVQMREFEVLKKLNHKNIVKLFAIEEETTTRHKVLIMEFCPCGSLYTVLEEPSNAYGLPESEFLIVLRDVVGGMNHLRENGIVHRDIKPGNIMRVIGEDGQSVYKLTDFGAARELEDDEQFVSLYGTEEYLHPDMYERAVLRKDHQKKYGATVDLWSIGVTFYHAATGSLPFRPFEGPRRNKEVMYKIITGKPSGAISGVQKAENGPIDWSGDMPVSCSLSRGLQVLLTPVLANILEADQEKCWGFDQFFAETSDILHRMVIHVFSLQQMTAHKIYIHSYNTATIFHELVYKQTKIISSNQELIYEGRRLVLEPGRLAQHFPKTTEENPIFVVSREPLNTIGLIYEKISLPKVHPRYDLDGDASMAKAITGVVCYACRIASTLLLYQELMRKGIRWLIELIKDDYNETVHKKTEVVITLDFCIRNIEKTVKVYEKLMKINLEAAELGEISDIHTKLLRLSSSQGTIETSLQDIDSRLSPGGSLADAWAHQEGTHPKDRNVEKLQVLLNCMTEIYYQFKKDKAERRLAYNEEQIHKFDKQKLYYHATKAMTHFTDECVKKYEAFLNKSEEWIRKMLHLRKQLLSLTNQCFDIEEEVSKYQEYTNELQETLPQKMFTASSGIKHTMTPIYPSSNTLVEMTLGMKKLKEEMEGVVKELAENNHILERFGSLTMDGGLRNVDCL

[25] = biological target: Tyrosine-protein kinase Yes (Homo sapiens) (UniProt P07947); assay: Binding affinity to wild-type human partial length YES (T257 to L543 residues) expressed in bacterial expression system assessed as residual binding level at 1 uM by Kinomescan method relative to control

## CC(C)Nc1sc(C(=O)c2ccc(Cl)s2)c(N)c1C#N
[1]
  Activity: 100%
[2]
  Activity: 100%
[3]
  Activity: 100%
[4]
  Activity: 60%
[5]
  Activity: 92%
[6]
  Activity: 100%
[7]
  Activity: 95%
[8]
  Activity: 93%
[9]
  Activity: 100%
[10]
  Activity: 90%
[11]
  Activity: 80%
[12]
  Activity: 100%
[13]
  Activity: 100%
[14]
  Activity: 100%
[15]
  Activity: 100%
[16]
  Activity: 79%
[17]
  Activity: 100%
[18]
  Activity: 81%
[19]
  Activity: 54%
[20]
  Activity: 100%
[21]
  Activity: 85%
[22]
  Activity: 100%
[23]
  Activity: 100%
[24]
  Activity: 97%
[25]
  Activity: 56%
